Converted amounts (≈) assume the structure as drawn. “And” between values parts separate entries of the source, which are not always exact repeats. Equal entries are not always repeated. Where two headings read alike, the source gives them in different places.

The test system of data set [1] is Mtb H37Rv. The data set can be described thus: microbe, parasite or virus in culture. It is filed as cell-based. As to conditions: Mycobacterium tuberculosis.
The target of the next data set is T1, Mtb CYP121A1 (Mycobacterium tuberculosis, UniProt P9WPP7).
T1 construct: made in house
T1 sequence (P9WPP7 whole entry): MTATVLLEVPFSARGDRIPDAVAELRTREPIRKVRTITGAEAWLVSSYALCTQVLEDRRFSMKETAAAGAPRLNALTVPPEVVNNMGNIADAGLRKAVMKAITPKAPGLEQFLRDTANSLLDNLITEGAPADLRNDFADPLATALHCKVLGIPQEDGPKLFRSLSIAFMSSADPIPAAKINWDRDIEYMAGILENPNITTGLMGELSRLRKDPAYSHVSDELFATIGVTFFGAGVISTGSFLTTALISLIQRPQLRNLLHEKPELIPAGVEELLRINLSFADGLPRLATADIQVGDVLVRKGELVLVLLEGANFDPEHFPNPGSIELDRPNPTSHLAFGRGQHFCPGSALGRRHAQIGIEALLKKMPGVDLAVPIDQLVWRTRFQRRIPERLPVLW
The data set can be described thus: biochemical. As to conditions: for Kd: 1 μM protein, 0 to 150 μM compound, plate reader, triplicate; for Soret shift: UV-vis absorbance, Soret band shift on ligand binding; for Spectral response in the UV-vis assay: compared with the imidazole derivatives. It is filed as binding.

Data set [2] has as its system Mtb H37Rv. More on the design: method as in PMID 29185746. As to conditions: previously prepared methoxy derivatives; cited from earlier work.
For the next data set, the system named is Mtb. Set-up: method as in PMID 31367508. As to conditions: lead diarylpyrazole derivatives, Fig. 2; cited from earlier work.
For the next data set, the target named is CYP121A1. The note with it: lead diarylpyrazole derivatives, Fig. 2; cited from earlier work.
Where [3] appears, read: Mtb H37Rv, SPOTi, five weeks at 37 °C, average of two independent experiments, read-out: MIC90.

Broadly, the Kd is the constant that tells how readily two partners part at equilibrium. For orientation: melting point means the temperature of the solid-liquid transition. `COc1ccc(-c2nn(-c3ccc(F)cc3)cc2Cn2ccnc2)cc1` [11a, 4-((1H-Imidazol-1-yl)methyl)-1-(4-fluorophenyl)-3-(4-methoxyphenyl)-1H-pyrazole] registered a melting point of 150 to 152 °C. Moreover, the MIC90 with Mtb H37Rv [1] (setting [3]) is 4.3 µg/mL and 12.3 µM. At Mtb CYP121A1, the Kd is 65 ± 16.6 µM and the Soret shift is recorded as 417 to 421 nm.

The compound `COc1ccc(-c2nn(-c3ccc(Cl)cc3)cc2Cn2ccnc2)cc1` [11b, 4-((1H-Imidazol-1-yl)methyl)-1-(4-chlorophenyl)-3-(4-methoxyphenyl)-1H-pyrazole] returned a melting point of 136 to 138 °C. Further, the MIC90 in the data set with Mtb H37Rv [1] (setting [3]) was 6 µg/mL and 16.5 µM.

Regarding `CCOc1ccc(-c2nn(-c3ccc(F)cc3)cc2Cn2ccnc2)cc1` [11c, 4-((1H-Imidazol-1-yl)methyl)-3-(4-ethoxyphenyl)-1-(4-fluorophenyl)-1H-pyrazole], the melting point is 118 to 120 °C. The MIC90 with Mtb H37Rv [1] (setting [3]) was 12 µg/mL and 33.2 µM. Moreover, at Mtb CYP121A1, the affinity, expressed as Kd, was 54 ± 5.2 µM and the Soret shift is listed as 417 to 422 nm.

`CCOc1ccc(-c2nn(-c3ccc(Cl)cc3)cc2Cn2ccnc2)cc1` [11d, 4-((1H-Imidazol-1-yl)methyl)-1-(4-chlorophenyl)-3-(4-ethoxyphenyl)-1H-pyrazole]: the melting point lay in the range of 124 to 126 °C. Moreover, the MIC90 in the data set on Mtb H37Rv [1] (setting [3]) is 5 µg/mL and 13.3 µM. Moreover, on Mtb CYP121A1, binding was put at a Kd of 18.8 ± 10.2 µM and the Soret shift is listed as 417 to 420 nm.

`CCCOc1ccc(-c2nn(-c3ccc(F)cc3)cc2Cn2ccnc2)cc1` [11e, 4-((1H-Imidazol-1-yl)methyl)-1-(4-fluorophenyl)-3-(4-propoxyphenyl)-1H-pyrazole] registered a melting point of 120 to 122 °C. In addition, the MIC90 in the data set on Mtb H37Rv [1] (setting [3]) is 6 µg/mL and 15.9 µM. Also, at Mtb CYP121A1, binding was put at a Kd of 22.3 ± 4.2 µM and the Soret shift is reported as 417 to 420 nm.

Consider `CCCOc1ccc(-c2nn(-c3ccc(Cl)cc3)cc2Cn2ccnc2)cc1` [11f, 4-((1H-Imidazol-1-yl)methyl)-1-(4-chlorophenyl)-3-(4-propoxyphenyl)-1H-pyrazole], for which the melting point was 90 to 92 °C. Besides, the MIC90 in the data set on Mtb H37Rv [1] (setting [3]) was 4 µg/mL and 10.1 µM. On Mtb CYP121A1, binding was put at a Kd of 11.7 µM and the Soret shift is reported as 417 to 419 nm. Besides, at Mtb CYP121A1 (UV-vis binding difference spectra), the “Binding type from difference spectra (type I / type II)” value was “type II”.

`CC(C)Oc1ccc(-c2nn(-c3ccc(F)cc3)cc2Cn2ccnc2)cc1` [11g, 4-((1H-Imidazol-1-yl)methyl)-1-(4-fluorophenyl)-3-(4-isopropoxyphenyl)-1H-pyrazole] registered a melting point of 96 to 98 °C. In addition, the MIC90 in the data set with Mtb H37Rv [1] (setting [3]) was 4.3 µg/mL and 11.4 µM. At Mtb CYP121A1, the Kd amounted to 38.5 ± 8.7 µM and the Soret shift lay within 417 to 419 nm.

`CC(C)Oc1ccc(-c2nn(-c3ccc(Cl)cc3)cc2Cn2ccnc2)cc1` [11h, 4-((1H-Imidazol-1-yl)methyl)-1-(4-chlorophenyl)-3-(4-isopropoxyphenyl)-1H-pyrazole] returned a melting point of 98 to 100 °C. Also, the MIC90 with Mtb H37Rv [1] (setting [3]) is 4.4 µg/mL and 11.9 µM. In addition, at Mtb CYP121A1, the Kd is 17.7 µM and the Soret shift lay in the range of 417 to 419 nm.

Turning to `COc1ccc(-c2nn(-c3ccc(F)cc3)cc2Cn2cncn2)cc1` [12a, 1-((1-(4-Fluorophenyl)-3-(4-methoxyphenyl)-1H-pyrazol-4-yl)methyl)-1H-1,2,4-triazole], the melting point lay within 150 to 152 °C. In addition, the MIC90 in the data set with Mtb H37Rv [1] (setting [3]) is 12.8 µg/mL and 36.7 µM.

In the case of `COc1ccc(-c2nn(-c3ccc(Cl)cc3)cc2Cn2cncn2)cc1` [12b, 1-((1-(4-Chlorophenyl)-3-(4-methoxyphenyl)-1H-pyrazol-4-yl)methyl)-1H-1,2,4-triazole], the melting point is 124 to 126 °C. For the same compound, the MIC90 in the data set on Mtb H37Rv [1] (setting [3]) was 4.4 µg/mL and 11.9 µM. Further, at Mtb CYP121A1, the Kd is 5.13 µM and 5.1 µM; the Soret shift is recorded as 417 to 417 nm; the “Spectral response in the UV-vis assay” value is “weak spectral response”.

For `CCOc1ccc(-c2nn(-c3ccc(F)cc3)cc2Cn2cncn2)cc1` [12c, 1-((3-(4-Ethoxyphenyl)-1-(4-fluorophenyl)-1H-pyrazol-4-yl)methyl)-1H-1,2,4-triazole], the melting point lay within 140 to 142 °C. Besides, in the data set on Mtb H37Rv [1] (setting [3]), the MIC90 was 25.6 µg/mL and 70.5 µM.

The compound `CCOc1ccc(-c2nn(-c3ccc(Cl)cc3)cc2Cn2cncn2)cc1` [12d, 1-((1-(4-Chlorophenyl)-3-(4-ethoxyphenyl)-1H-pyrazol-4-yl)methyl)-1H-1,2,4-triazole] had a melting point of 122 to 124 °C. The MIC90 with Mtb H37Rv [1] (setting [3]) was 6.4 µg/mL and 16.8 µM. Also, the “Spectral response in the UV-vis assay” value on Mtb CYP121A1 is “weak spectral response”.

`CCCOc1ccc(-c2nn(-c3ccc(F)cc3)cc2Cn2cncn2)cc1` [12e, 1-((1-(4-Fluorophenyl)-3-(4-propoxyphenyl)-1H-pyrazol-4-yl)methyl)-1H-1,2,4-triazole] registered a melting point of 120 to 122 °C. In the data set on Mtb H37Rv [1] (setting [3]), the MIC90 was 20.9 µg/mL and 55.5 µM.

The compound `CCCOc1ccc(-c2nn(-c3ccc(Cl)cc3)cc2Cn2cncn2)cc1` [12f, 1-((1-(4-Chlorophenyl)-3-(4-propoxyphenyl)-1H-pyrazol-4-yl)methyl)-1H-1,2,4-triazole] had a melting point of 114 to 116 °C. Moreover, the MIC90 with Mtb H37Rv [1] (setting [3]) is 6.4 µg/mL and 16.2 µM.

For the compound `CC(C)Oc1ccc(-c2nn(-c3ccc(F)cc3)cc2Cn2cncn2)cc1` [12g, 1-((1-(4-Fluorophenyl)-3-(4-isopropoxyphenyl)-1H-pyrazol-4-yl)methyl)-1H-1,2,4-triazole], the melting point was 118 to 120 °C. For the same compound, in the data set on Mtb H37Rv [1] (setting [3]), the MIC90 was 20.9 µg/mL and 55.5 µM.

In turn, `CC(C)Oc1ccc(-c2nn(-c3ccc(Cl)cc3)cc2Cn2cncn2)cc1` [12h, 1-((1-(4-Chlorophenyl)-3-(4-isopropoxyphenyl)-1H-pyrazol-4-yl)methyl)-1H-1,2,4-triazole] gave a melting point of 98 to 100 °C. In addition, in the data set on Mtb H37Rv [1] (setting [3]), the MIC90 was 25.6 µg/mL and 65.1 µM.

With `NNC(=O)c1ccncc1` [Isoniazid, reference compound], in the data set with Mtb H37Rv [1] (setting [3]), the MIC90 is 0.2 µg/mL and 1.8 µM.

In the case of `NC[C@H]1O[C@H](O[C@H]2[C@H](O)[C@@H](O[C@H]3O[C@H](CO)[C@@H](O)[C@H](N)[C@H]3O)[C@H](N)C[C@@H]2N)[C@H](O)[C@@H](O)[C@@H]1O` [Kanamycin, reference compound], the MIC90 against Mtb H37Rv [1] is 7.8 µg/mL and 16.1 µM.

In the case of `COc1ccc(-c2nn(-c3ccccc3)cc2Cn2ccnc2)cc1` [P1], in the data set with Mtb H37Rv [2], the MIC90 was 25 µg/mL (≈ 75.7 µM).

On to `COc1ccc(-c2nn(-c3ccccc3)cc2Cn2cncn2)cc1` [P2], for which the MIC90 in the data set with Mtb H37Rv [2] was 25 µg/mL (≈ 75.4 µM).

For orientation: MIC means the smallest concentration in the dilution series that meets the test's criterion for growth inhibition. `CCc1ccc(-c2nn(-c3ccccc3)cc2Cn2ccnc2)cc1` [R = Et]: the MIC in the data set with Mtb was 1.562 µg/mL (≈ 4.76 µM). Further, at CYP121A1, the Kd was 18.3 ± 3.4 µM.

Turning to `CCCc1ccc(-c2nn(-c3ccccc3)cc2Cn2ccnc2)cc1` [R = Pr], the MIC in the data set on Mtb was 0.78 µg/mL and 0.781 µg/mL. In addition, at CYP121A1, the Kd is 53.7 ± 5.9 µM.

As for `CC(C)c1ccc(-c2nn(-c3ccccc3)cc2Cn2ccnc2)cc1` [R = iPr], the MIC in the data set on Mtb is 1.562 µg/mL (≈ 4.56 µM). For the same compound, the Kd on CYP121A1 was 22.5 ± 3.5 µM.

For `CO[C@H]1/C=C/O[C@@]2(C)Oc3c(C)c(O)c4c(O)c(c(/C=N/N5CCN(C)CC5)c(O)c4c3C2=O)NC(=O)/C(C)=C\C=C\[C@H](C)[C@H](O)[C@@H](C)[C@@H](O)[C@@H](C)[C@H](OC(C)=O)[C@@H]1C` [Rifampicin, reference compound], the MIC90 in the data set with Mtb H37Rv [1] (setting [3]) was 0.2 µg/mL and 0.3 µM.

The record behind these values is publication PMC9667784, “Synthesis, biological evaluation and computational studies of pyrazole derivatives as Mycobacterium tuberculosis CYP121A1 inhibitors” (RSC Medicinal Chemistry, 2022).
